Experimental data: patent US7781469B2, “Arylacetate derivatives having isoxazole skeleton” (Shionogi & Co., Ltd., priority 2005, dated 2010)

Tests used:
[1] = target: T1, human PPARδ (hPPARδ) (Homo sapiens, UniProt Q03181); test: Test for transcriptional activity of PPARδ (GAL4 chimeric transcription factor luciferase reporter assay in CHO cells); format: cell-based; details: concentration showing 1/2 of maximum luciferase activity
T1 construct: (δ: aa 139-C-end; α: aa 167-C-end); expressed in transfected cells
T1 sequence (Q03181 139-441 limits assumed): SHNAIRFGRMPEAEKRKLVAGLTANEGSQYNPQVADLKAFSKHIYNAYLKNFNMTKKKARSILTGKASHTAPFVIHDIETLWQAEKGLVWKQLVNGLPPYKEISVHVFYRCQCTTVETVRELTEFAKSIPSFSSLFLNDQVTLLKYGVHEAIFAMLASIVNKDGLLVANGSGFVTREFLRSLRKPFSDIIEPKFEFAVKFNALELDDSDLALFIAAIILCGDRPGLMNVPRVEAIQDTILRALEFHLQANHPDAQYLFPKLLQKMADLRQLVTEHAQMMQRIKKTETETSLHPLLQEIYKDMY
Excerpt: Test Example 1 Test for Transcriptional Activity of PPARδ and α
A chimeric transcription factor assay, which is commonly used to detect nuclear receptor activity, was employed to measure PPAR transcriptional activity. Specifically, two plasmids, one that expresses the fusion protein of DNA binding domain of yeast transcription factor GAL4 and a ligand binding domain of a receptor, and a reporter plasmid were transiently transfected to CHO cells. The activity of the promoter containing a recognition sequence of GAL4 coded on the reporter plasmid was used as a parameter to estimate the activity of the receptor. • Plasmid: The ligand binding domain of human PPARδ (hPPARδ) or α (hPPARα) (δ: aa 139-C-end; α: aa 167-C-end) is obtained by PCR amplification using Human Universal Quick-Clone cDNA (CLONTECH). Each amplified cDNA was subcloned into pCR2.1-TOPO vector (Invitrogen) and the identity of the cDNA clones was confirmed by the DNA sequence. Then, each obtained cDNA fragment was subcloned into pBIND vector (Promega) to construct a plasmid expressing the fusion protein with DNA binding domain of yeast transcription factor GAL4. pG51uc vector (Promega) was used as a reporter plasmid. • Cell culturing and transfection: CHO cells were cultured in 10% FBS-αMEM. With a 96-well plate (Costar), CHO cells, that were dispersed with trypsin treatment, 20000 cells per well and the two plasmids obtained by the above procedure, 25 ng per well, were transfected with FuGene Reagent (Roche) by following the instruction of the manufacture. • Measurement of the transcriptional activity: CHO cells 100 μl per well, which were transfected as above, were dispensed into the wells in which a test compound dissolved in DMSO 0.5 μl was spotted in advance. After the cells and a test compound were cultured together for 24 hours in a CO2 incubator, the luciferase activity was measured by adding luciferase substrates, PicaGene LT2.0 (Toyo ink) 100 μl per well. LUMINOUS CT-9000D (DIA-IATRON) is used to measure the activity.

Compound | EC50 [1] [nM] | melting point [°C]
CCON=Cc1c(CSc2cccc(CC(=O)O)c2)noc1-c1ccc(C(F)(F)F)cc1 [X-25] | 12 | 131 to 133
CCON=Cc1c(CSc2cc(CC(=O)O)ccc2F)noc1-c1ccc(C(F)(F)F)cc1 [X-8] | 9.8 | 
O=C(O)Cc1cccc(SCc2noc(-c3ccc(C(F)(F)F)cc3)c2C=NOCCF)c1 [X-6, {3-[4-(2-Fluoroethoxyiminomethyl)-5-(4-trifluoromethylphenyl)isoxazole-3-ylmethylsulfanyl]phenyl}acetic acid] | 9.8 | 
